# Measurements as given in ChEMBL document CHEMBL1201862, “PubChem BioAssay data set” (2004).
#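 Dose response: 5 concentrations. Exposure: 48 h. Format: 96-well plates. Endpoint: linear interpolation; highest concentration if not reached. At the GI50, growth is halved.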 Calls of active or inactive are those of the source. No stated cut-off is given here; in the data, active = GI50 up to about 1.1 µM and inactive = higher.
# Legend:
# Assay in all cases: NCI anticancer screen, dose series, 48 h
# HOP-62 = tested on: HOP-62
# NCI-H226 = tested on: NCI-H226
# SF-295 = tested on: SF-295
# RXF 393 = tested on: RXF 393
# HCT-15 = tested on: HCT-15
# SK-MEL-5 = tested on: SK-MEL-5
# Hs-578T = tested on: Hs-578T
# SNB-75 = tested on: SNB-75
# Malme-3M = tested on: Malme-3M
# SNB-19 = tested on: SNB-19
# T47D = tested on: T47D
# U-251 = tested on: U-251
# NCI-H522 = tested on: NCI-H522
# RPMI-8226 = tested on: RPMI-8226
# OVCAR-8 = tested on: OVCAR-8
# EKVX = tested on: EKVX
# MOLT-4 = tested on: MOLT-4
# K562 = tested on: K562
# SR = tested on: SR
SMILES,GI50 (HOP-62),GI50 (NCI-H226),GI50 (SF-295),GI50 (RXF 393),GI50 (HCT-15),GI50 (SK-MEL-5),GI50 (Hs-578T),GI50 (SNB-75),GI50 (Malme-3M),GI50 (SNB-19),GI50 (T47D),GI50 (U-251),GI50 (NCI-H522),GI50 (RPMI-8226),GI50 (OVCAR-8),GI50 (EKVX),GI50 (MOLT-4),GI50 (K562),GI50 (SR)
O=S(=O)(O)c1ccc(/N=N/c2ccc3c(S(=O)(=O)O)cccc3c2O)c2ccccc12,> 100 µM (inactive),> 100 µM (inactive),> 100 µM (inactive),> 100 µM (inactive),> 100 µM,> 100 µM (inactive),> 100 µM (inactive),> 100 µM (inactive),> 100 µM (inactive),> 100 µM (inactive),> 100 µM (inactive),> 100 µM (inactive),> 100 µM (inactive),> 100 µM (inactive),> 100 µM (inactive),> 100 µM (inactive),–,–,–
c1ccc2c(c1)SC1=C(SC(=C3SC4=C(S3)Sc3ccccc3S4)S1)S2,36.9 µM (inactive),> 100 µM (inactive),> 100 µM (inactive),–,> 100 µM,> 100 µM (inactive),23.3 µM (inactive),49.4 µM (inactive),> 100 µM (inactive),> 100 µM (inactive),> 100 µM (inactive),> 100 µM (inactive),> 100 µM (inactive),> 100 µM (inactive),> 100 µM (inactive),> 100 µM (inactive),> 100 µM (inactive),–,–
NC1CCN(c2nc3ccccc3c3c2CCCC3)CC1,15.1 µM (inactive),10.2 µM (inactive),10.1 µM (inactive),2.33 µM (inactive),5.37 µM,2.57 µM (inactive),20.5 µM (inactive),9.93 µM (inactive),7.41 µM (inactive),8.67 µM (inactive),2.18 µM (inactive),4.59 µM (inactive),5.73 µM (inactive),1.8 µM (inactive),13.2 µM (inactive),5.9 µM (inactive),2.09 µM (inactive),1.62 µM (inactive),–
CC(C)(O)C1CC[C@]2(C)[C@H]3CC[C@@H]4[C@@]5(C)CCCC(C)(C)[C@@H]5CC[C@@]4(C)[C@]3(C)CC[C@@H]12 (some centres not stated),> 100 µM (inactive),–,> 100 µM (inactive),> 100 µM (inactive),> 100 µM,> 100 µM (inactive),> 100 µM (inactive),–,> 100 µM (inactive),> 100 µM (inactive),> 100 µM (inactive),> 100 µM (inactive),> 100 µM (inactive),> 100 µM (inactive),> 100 µM (inactive),> 100 µM (inactive),> 100 µM (inactive),–,–
O=c1[nH]n2c(=O)cc[nH]c2c1-c1nnns1,> 100 µM (inactive),> 100 µM (inactive),> 100 µM (inactive),> 100 µM (inactive),> 100 µM,> 100 µM (inactive),–,> 100 µM (inactive),> 100 µM (inactive),> 100 µM (inactive),–,> 100 µM (inactive),> 100 µM (inactive),> 100 µM (inactive),–,> 100 µM (inactive),> 100 µM (inactive),> 100 µM (inactive),> 100 µM (inactive)
CC(=O)N1c2ccccc2Sc2cc(C(O)(C(F)(F)F)C(F)(F)F)ccc21,> 10 µM (inactive),> 10 µM (inactive),> 10 µM (inactive),> 10 µM (inactive),> 10 µM,7.26 µM (inactive),> 10 µM (inactive),9.59 µM (inactive),> 10 µM (inactive),> 10 µM (inactive),9.86 µM (inactive),> 10 µM (inactive),> 10 µM (inactive),–,> 10 µM (inactive),> 10 µM (inactive),> 10 µM (inactive),> 10 µM (inactive),–
Cc1cc2ncn(C3CCCCO3)c2cc1C (configuration not stated),> 100 µM (inactive),> 100 µM (inactive),> 100 µM (inactive),> 100 µM (inactive),> 100 µM,> 100 µM (inactive),> 100 µM (inactive),> 100 µM (inactive),> 100 µM (inactive),> 100 µM (inactive),> 100 µM (inactive),> 100 µM (inactive),> 100 µM (inactive),> 100 µM (inactive),> 100 µM (inactive),> 100 µM (inactive),> 100 µM (inactive),> 100 µM (inactive),–
Cc1ccc(/C=N/C23CC4CC(CC(C4)C2)C3)cc1,> 100 µM (inactive),> 100 µM (inactive),> 100 µM (inactive),> 100 µM (inactive),> 100 µM,84.1 µM (inactive),–,44.8 µM (inactive),25.1 µM (inactive),–,–,> 100 µM (inactive),–,> 100 µM (inactive),> 100 µM (inactive),> 100 µM (inactive),> 100 µM (inactive),> 100 µM (inactive),> 100 µM (inactive)
CC(C)c1cc(=O)[nH]c2cc(N)ccc12,> 100 µM (inactive),> 100 µM (inactive),> 100 µM (inactive),> 100 µM (inactive),> 100 µM,> 100 µM (inactive),–,86.9 µM (inactive),–,> 100 µM (inactive),> 100 µM (inactive),> 100 µM (inactive),–,> 100 µM (inactive),> 100 µM (inactive),> 100 µM (inactive),> 100 µM (inactive),> 100 µM (inactive),> 100 µM (inactive)
